# Source: publication PMC7961786, “Magic Peptide: Unique Properties of the LRR11 Peptide in the Activation of Leukotriene Synthesis in Human Neutrophils” (International Journal of Molecular Sciences, 2021)
# System: human neutrophils, 5-LOX metabolites
# Experiment: 5-LOX metabolite production in neutrophils without bacteria or other phagocytosis targets
# Format: cell-based
# Conditions: in the absence of bacteria or other targets for phagocytosis
# Method: Human neutrophils synthesize 5-LOX metabolites (leukotriene B4 (LTB4) and its isomers, ω-OH-LTB4 and 5-HETE), during phagocytosis of opsonized zymosan or S. typhimurium bacteria. In the absence of bacteria or other targets for phagocytosis, treatment of neutrophils with ODNs listed in Table 1 or with LRR11, produce less than 1 ng of LTB4, its isomers, ω-OH-LTB4, and 5-HETE per 10^7 PMNLs. The potential of the LRR11 peptide and ODNs to regulate the synthesis of products catalyzed by 5-LOX was assessed after cell incubation with ODNs (+/−LRR11) followed by the addition of opsonized S. typhimurium bacteria (OS). To test whether neutrophil incubation with ODNs, LRR11 and bacteria affects cell viability, we assessed phosphatidylserine externalization and the integrity of neutrophil membranes after 20 min with ODNs (+/−LRR11) followed by 15 min with OS at 37 °C. The data obtained by flow cytometry using double Alexa Fluor-conjugated Annexin V/propidium iodide staining indicate that in our experiment the percentage of viable cells exceeds 96% (Figure S1).
# Human neutrophils were isolated from freshly taken citrate-anticoagulated peripheral blood from healthy individuals using standard methods. Leukocyte-rich plasma was prepared by sedimentation of erythrocytes with 3% dextran T-500 at room temperature. […]
sequence,measurement,value
"QLRKLNLSFNYQKRVSFAHLSLAPSFGSLV [LRR11, 30 amino acid peptide from leucine-rich repeat of TLR9]","LTB4, its isomers, ω-OH-LTB4, and 5-HETE produced",less than 1 ng per 10^7 PMNLs
